Assay [1] concerns JM1. The experiment in a line: Tested for antiviral uM; Activity expressed as % inhibition of syncytium. The class given is functional, Homo sapiens.
The subject of assay [2] is JM1. Nature of the assay: (§1) Tested for antiviral activity of compound against HIV (Strain GB 8) in JM cells. Format: functional, cell-based. The conditions noted are these: Homo sapiens.
Assay [3] has as its system JM1. Described as §1. The class given is functional, Homo sapiens.
Assay [4] concerns JM1. The experiment in a line: Tested for the cytotoxicity against JM cells at 100 uM in an MTT assay. The class given is functional, Homo sapiens. Background: Tetrazolium dyes change colour on reduction, which living cells bring about.
Assay [5] relates to JM1. Described as §1. The class given is functional, cell-based. The settings on record: Homo sapiens. The source holds these as a separate data set.

Where “and” joins values, the source holds several entries; their conditions need not be identical. Identical values can stand only once.

As a reminder, the Inhibition is how much of the control response was suppressed. High values mean a response far below the control, low ones a response near the control. A word on the IC50: it is the midpoint of a concentration-inhibition curve. A higher IC50 goes with lower potency. By IC90 is commonly meant the point of the concentration-response curve where the effect stands at 90%. A lower IC90 goes with an effect from little substance.

For the compound `COC(=O)NN1C(=O)[C@H](C)[C@H]1[C@@H]1NC[C@@H](O)[C@H]1O.Cl`, the Inhibition in assay [1] was 20% and 27%.

Regarding `O[C@H]1[C@H](O)[C@@H](O)CN2CC[C@H](O)[C@H]12` [CASTANOSPERMINE], the IC50 in assay [2] came out at 7.3 µM; in assay [5], 8.8 µM. Moreover, the concentration for an effect of 90% (IC90) is 24.5 µM in assay [3] and 28.2 µM in assay [3] (Homo sapiens, JM1). In addition, the Cytotoxicity in assay [4] is 0% and 4%.

Values taken from ChEMBL document CHEMBL1126998, “-lactam derivatives from 1-H-1,2-diazepines” (Bioorg Med Chem Lett, 1993).
